Series [1] addresses T1, Phosphatidylinositol 4,5-bisphosphate 3-kinase catalytic subunit delta isoform (Homo sapiens, UniProt O00329).
T1 sequence (O00329 whole entry): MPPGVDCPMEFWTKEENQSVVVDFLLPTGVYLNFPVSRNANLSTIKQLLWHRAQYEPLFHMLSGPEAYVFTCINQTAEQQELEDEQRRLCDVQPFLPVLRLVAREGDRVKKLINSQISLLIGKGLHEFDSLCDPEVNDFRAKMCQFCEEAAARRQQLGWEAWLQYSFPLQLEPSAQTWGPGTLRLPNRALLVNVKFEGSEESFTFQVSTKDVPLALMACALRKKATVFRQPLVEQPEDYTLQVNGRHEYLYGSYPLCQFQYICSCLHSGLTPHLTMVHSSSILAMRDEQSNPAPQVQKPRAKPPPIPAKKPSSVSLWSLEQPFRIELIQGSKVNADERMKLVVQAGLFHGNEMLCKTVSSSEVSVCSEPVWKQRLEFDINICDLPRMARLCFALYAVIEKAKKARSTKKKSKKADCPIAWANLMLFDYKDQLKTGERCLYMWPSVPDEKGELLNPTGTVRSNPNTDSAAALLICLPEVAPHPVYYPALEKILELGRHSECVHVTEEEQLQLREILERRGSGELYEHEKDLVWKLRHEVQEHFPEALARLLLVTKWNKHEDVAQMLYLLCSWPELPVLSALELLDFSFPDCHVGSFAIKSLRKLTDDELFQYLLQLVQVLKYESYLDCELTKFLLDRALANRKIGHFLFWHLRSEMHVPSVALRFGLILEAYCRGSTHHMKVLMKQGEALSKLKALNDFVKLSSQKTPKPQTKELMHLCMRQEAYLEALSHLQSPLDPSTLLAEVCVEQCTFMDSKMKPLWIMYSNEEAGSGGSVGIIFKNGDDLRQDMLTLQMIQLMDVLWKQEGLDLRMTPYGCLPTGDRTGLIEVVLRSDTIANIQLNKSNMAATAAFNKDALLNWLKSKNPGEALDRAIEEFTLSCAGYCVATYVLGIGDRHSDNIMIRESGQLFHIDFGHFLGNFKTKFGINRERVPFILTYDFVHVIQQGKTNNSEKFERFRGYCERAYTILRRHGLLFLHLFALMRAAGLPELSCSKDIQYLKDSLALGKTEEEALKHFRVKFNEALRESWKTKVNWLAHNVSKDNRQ
In words: Inhibition of PI3Kdelta (unknown origin) in presence of […] uM ATP.

A short description of series [2]: Metabolic stability in minipig liver microsomes assessed as intrinsic clearance. Format: ADME, Sus scrofa domesticus, Microsome. The conditions noted are these: pig, read-out: CLH. On the technique in general: Liver microsomes are vesicles of endoplasmic reticulum, rich in cytochrome P450 enzymes.
Series [3] addresses Interleukin-1 receptor-associated kinase 1 (Homo sapiens, UniProt P51617). Kind of series: Inhibition of IRAK1 (unknown origin) in presence of 25 uM ATP.
For series [4], the target named is T2, Receptor-type tyrosine-protein kinase FLT3 (Homo sapiens, UniProt P36888).
T2 sequence (P36888 whole entry): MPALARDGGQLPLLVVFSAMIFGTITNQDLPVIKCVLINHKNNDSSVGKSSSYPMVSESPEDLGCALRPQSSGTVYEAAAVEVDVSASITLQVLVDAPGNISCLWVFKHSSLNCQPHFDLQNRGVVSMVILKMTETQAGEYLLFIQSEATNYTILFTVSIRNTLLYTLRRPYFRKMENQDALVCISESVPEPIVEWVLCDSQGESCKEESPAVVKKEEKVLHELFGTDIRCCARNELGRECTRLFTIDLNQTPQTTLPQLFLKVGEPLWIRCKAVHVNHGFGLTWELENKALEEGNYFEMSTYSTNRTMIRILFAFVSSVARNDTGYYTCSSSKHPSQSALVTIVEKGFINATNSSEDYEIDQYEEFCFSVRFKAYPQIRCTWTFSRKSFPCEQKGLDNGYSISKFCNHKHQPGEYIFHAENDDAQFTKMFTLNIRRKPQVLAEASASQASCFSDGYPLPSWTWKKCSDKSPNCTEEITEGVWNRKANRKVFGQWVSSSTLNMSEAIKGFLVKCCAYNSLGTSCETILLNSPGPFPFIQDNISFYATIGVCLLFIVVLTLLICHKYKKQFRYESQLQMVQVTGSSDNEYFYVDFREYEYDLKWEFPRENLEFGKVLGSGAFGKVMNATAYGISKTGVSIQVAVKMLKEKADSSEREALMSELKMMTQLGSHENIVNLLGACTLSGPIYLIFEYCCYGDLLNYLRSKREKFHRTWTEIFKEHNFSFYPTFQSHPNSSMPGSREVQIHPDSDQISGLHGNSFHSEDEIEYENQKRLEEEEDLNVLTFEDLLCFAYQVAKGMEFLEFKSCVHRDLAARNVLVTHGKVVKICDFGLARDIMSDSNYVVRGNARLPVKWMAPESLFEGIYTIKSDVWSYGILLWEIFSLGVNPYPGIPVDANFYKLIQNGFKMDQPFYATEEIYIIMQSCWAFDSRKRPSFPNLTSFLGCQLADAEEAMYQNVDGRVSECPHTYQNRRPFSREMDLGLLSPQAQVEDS
In words: Inhibition of FLT3 (unknown origin) in presence of 600 uM ATP.

For series [5], the system named is OCI-Ly10. In words: Growth inhibition of human OCILY10 cells at 1.7 uM incubated for 3 days (Rvb= -3%). Format: functional. Particulars: OCI-Ly10, 72 h, time 3 day, read-out: GI.
Series [6] deals with High affinity nerve growth factor receptor (Homo sapiens, UniProt P04629). In words: Inhibition of TRKA (unknown origin) in presence of 400 uM ATP.
High affinity nerve growth factor receptor, sequence (P04629 whole entry): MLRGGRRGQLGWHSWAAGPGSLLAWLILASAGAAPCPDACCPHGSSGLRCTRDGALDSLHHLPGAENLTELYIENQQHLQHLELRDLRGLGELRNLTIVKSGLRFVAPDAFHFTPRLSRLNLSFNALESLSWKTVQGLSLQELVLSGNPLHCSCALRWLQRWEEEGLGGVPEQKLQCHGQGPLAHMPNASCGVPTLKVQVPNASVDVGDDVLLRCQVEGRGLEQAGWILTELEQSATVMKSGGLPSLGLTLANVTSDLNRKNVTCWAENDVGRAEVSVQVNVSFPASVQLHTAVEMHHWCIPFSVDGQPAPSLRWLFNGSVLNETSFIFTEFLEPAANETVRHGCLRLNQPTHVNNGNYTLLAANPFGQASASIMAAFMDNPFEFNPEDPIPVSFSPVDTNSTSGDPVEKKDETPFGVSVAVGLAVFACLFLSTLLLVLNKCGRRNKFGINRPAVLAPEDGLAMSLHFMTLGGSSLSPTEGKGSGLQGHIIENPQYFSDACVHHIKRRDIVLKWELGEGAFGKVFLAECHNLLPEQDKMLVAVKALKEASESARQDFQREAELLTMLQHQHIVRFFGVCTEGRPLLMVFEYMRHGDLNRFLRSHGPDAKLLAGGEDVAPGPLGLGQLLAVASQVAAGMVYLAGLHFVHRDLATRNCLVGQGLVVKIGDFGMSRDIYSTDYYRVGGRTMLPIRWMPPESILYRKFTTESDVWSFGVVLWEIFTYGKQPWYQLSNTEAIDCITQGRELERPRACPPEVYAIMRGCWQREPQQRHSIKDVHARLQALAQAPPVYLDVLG
Series [7] addresses Tyrosine-protein kinase BTK (Homo sapiens, UniProt Q06187). In words: Inhibition of BTK (unknown origin) in presence of 25 uM ATP.
Series [8] in a line: Metabolic stability in mouse liver microsomes assessed as intrinsic clearance. Format: ADME, Microsome. The conditions noted are these: read-out: CLH.
Series [9] deals with OCI-Ly10. Kind of series: Growth inhibition of human OCILY10 cells at 10 uM incubated for 3 days (Rvb= -3%). The format is functional. The conditions noted are these: OCI-Ly10, 72 h, time 3 day, read-out: GI.
Series [10] has as its target T3, Interleukin-1 receptor-associated kinase 4 (Homo sapiens) (UniProt Q9NWZ3).
T3 sequence (whole entry): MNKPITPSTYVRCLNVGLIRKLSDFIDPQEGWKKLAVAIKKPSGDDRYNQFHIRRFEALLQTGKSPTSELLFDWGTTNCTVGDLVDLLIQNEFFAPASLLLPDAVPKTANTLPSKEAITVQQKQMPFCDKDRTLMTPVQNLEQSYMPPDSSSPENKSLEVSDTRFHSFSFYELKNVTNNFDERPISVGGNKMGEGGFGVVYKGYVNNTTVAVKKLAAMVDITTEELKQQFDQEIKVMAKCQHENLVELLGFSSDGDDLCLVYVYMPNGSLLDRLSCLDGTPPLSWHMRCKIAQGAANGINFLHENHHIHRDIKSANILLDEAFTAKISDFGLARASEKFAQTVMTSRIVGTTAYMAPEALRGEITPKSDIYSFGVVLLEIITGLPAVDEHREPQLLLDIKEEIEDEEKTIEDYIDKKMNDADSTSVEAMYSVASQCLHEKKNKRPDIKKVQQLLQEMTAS
In words: Inhibition of IRAK4 (unknown origin) at 0.1 uM relative to control.

Series [11] has as its target T4, Interleukin-1 receptor-associated kinase 4 (Homo sapiens, UniProt Q9NWZ3).
T4 sequence (Q9NWZ3 whole entry): T3 sequence (whole entry)
In words: Inhibition of IRAK4 (unknown origin) in presence of ATP by enzymatic assay.

Structures are written as SMILES.

Tyrosine-protein kinase BTK, sequence (Q06187 whole entry): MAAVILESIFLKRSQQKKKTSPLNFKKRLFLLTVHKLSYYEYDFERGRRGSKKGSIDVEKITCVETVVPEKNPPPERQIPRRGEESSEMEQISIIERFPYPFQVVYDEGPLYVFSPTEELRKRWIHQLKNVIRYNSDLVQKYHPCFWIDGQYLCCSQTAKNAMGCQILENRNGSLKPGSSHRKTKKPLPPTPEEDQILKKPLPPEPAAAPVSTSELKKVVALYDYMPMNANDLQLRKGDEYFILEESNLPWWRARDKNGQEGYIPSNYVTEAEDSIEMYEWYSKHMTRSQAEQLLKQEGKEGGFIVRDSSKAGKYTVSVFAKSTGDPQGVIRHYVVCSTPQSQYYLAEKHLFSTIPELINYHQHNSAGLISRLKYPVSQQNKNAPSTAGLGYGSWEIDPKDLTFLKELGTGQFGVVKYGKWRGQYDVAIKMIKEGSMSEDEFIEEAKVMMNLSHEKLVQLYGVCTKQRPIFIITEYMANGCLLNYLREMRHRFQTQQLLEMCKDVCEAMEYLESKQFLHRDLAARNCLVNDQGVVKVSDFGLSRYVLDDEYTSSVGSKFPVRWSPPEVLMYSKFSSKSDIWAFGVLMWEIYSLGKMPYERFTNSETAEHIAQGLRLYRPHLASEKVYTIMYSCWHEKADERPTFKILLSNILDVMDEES
Interleukin-1 receptor-associated kinase 1, sequence (P51617 whole entry): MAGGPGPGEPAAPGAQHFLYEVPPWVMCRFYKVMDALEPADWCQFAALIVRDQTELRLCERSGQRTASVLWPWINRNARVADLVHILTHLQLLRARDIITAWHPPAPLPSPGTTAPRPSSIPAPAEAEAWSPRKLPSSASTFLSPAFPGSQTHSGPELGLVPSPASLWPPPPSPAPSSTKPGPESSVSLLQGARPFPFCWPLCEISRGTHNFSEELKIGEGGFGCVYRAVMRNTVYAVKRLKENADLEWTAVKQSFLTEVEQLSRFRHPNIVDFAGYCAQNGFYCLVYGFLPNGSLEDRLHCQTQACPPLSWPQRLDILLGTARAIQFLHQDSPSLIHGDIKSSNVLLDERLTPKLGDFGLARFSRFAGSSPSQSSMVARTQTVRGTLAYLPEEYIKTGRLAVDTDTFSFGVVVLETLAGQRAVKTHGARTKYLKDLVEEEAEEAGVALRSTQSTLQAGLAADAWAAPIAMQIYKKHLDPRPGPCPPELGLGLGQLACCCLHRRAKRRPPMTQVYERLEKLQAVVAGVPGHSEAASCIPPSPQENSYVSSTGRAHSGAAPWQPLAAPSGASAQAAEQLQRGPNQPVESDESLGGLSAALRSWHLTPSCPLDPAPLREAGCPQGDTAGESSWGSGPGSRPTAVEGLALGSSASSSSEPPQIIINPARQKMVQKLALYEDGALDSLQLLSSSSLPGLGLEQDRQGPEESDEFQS

By IC50 is commonly meant the point on the concentration scale where inhibition reaches its midpoint. In general, inhibition refers to the drop in the measured response relative to a control, in per cent. Take `Cc1ncc(-c2nc3c(OC4(C)CC4)nc(Nc4cnn(C5CCN(C)CC5)c4)nc3cc2F)cn1`: the IC50 in series [1] was 53 nM; in [3] it was 1400 nM; in series [4] it was greater than 9000 nM; in [6] it was 270 nM; in series [7], greater than 8000 nM; in [11], 3 nM. Moreover, the microsomal CLint in [2] amounted to 18 µL/min/mg; in series [8], 13 µL/min/mg. Further, the inhibition of growth at 1.7 µM in [5] came to 44%. Also, in series [9], the inhibition of growth at 10 µM stood at 148%. Further, the inhibition in series [10] came to 102%.

Turning to `Cc1ncc(-c2nc3c(NC(C)C)nc(Nc4cnn(C5CC6(C5)CN(C)C6)c4)nc3cc2F)cn1`, the IC50 in [1] was 230 nM; in series [3] it was 1200 nM; in series [4], 1500 nM; in series [6] it was 480 nM; in [7] it was greater than 10000 nM; in series [11], 2 nM. In addition, the inhibition of growth at 1.7 µM in [5] was 75%. Further, the inhibition of growth at 10 µM in series [9] is 157%.

The record behind these values is ChEMBL document CHEMBL5244269, “Improving metabolic stability and removing aldehyde oxidase liability in a 5-azaquinazoline series of IRAK4 inhibitors” (Bioorg Med Chem, 2020).
